According to publication PMC8001000, “Pitfalls in the Immunochemical Determination of β-Lactam Antibiotics in Water” (Antibiotics, 2021):
Read-outs that look alike come from different tables or passages of the source.

Tests used:
[1] = test system: monoclonal mouse anti-AMX antibody A1463 (clone 1.BB.832); assay: indirect competitive ELISA (calibration curves of β-lactams and hydrolysis products); type: binding; conditions: for IC50: read-out: IC50 (ELISA calibration curve); for reduction of LOD by hydrolysis: after hydrolysis
Description: For the preparation of standards (calibrators), stock solutions of each compound with a mass concentration of approximately 1 g/L were prepared gravimetrically by weighing the respective compound and amount of solvent. Solvents for these stock solutions were ethanol for amoxicillin piperazine-2,5-dione and 3-(4-hydroxyphenyl)pyrazin-2-ol, or Milli-Q water for all other compounds. Standard solutions of each compound were prepared volumetrically by serial dilution of the respective stock solution in Milli-Q water. All standards and stock solutions were stored at 4 °C in the amber glass vials.
(§1) For hydrolysis, standards and samples were diluted in 0.1 M sodium hydroxide solution (1:1) the day before analysis in the assay, i.e., the day of coating (see below), and stored at 4 °C until the next day. Samples for reference analysis without hydrolysis were diluted in Milli-Q water (1:1) prior to analysis.
Each cavity of a 96-well microplate was coated with AMX-HSA (or alternatively AMX-BSA) in PBS (47.619 ng/L, 200 µL/well) and incubated for 18 h at RT with shaking at 750 rpm. Afterwards the plate was washed three times with washing buffer (1:60 dilution of washing buffer 60x in Milli-Q water) and the cavities were blocked with 0.1% (w/v) casein in PBS (200 µL/well) for 1 h at 750 rpm and RT. After repeated washing, standards/samples (100 µL/well) and primary antibody (dilution 1:20,000 in Tris for preliminary and cross-reactivity studies, in sample buffer pH 7.6 for sample analysis or in sample buffer pH 8.5 for reference analysis for degree of hydrolysis; 100 µL/well) were added and incubated for 1 h at 750 rpm and RT. Following another washing step, the plate was incubated with secondary antibody (95.238 ng/L, 200 µL/well) for 1 h at 750 rpm at RT. After final washing, cavities were filled with freshly prepared substrate solution (22 mL citrate buffer, 8.5 µL hydrogen peroxide solution, 550 µL TMB stock solution; 200 µL/well) and shaken for 10 min (preliminary and cross-reactivity studies) or 20 min (sample analysis, degree of hydrolysis) at 750 rpm for blue color development. […] Optical density was read at RT at a wavelength of 450 nm with reference at 620 nm. Data points were plotted in Origin® 2019 (OriginLab, Northampton, MA, USA), calibration curves were obtained by fitting a four-parameter logistic function to the measured data points and sample concentrations were determined by correlating concentration values of hydrolyzed standards with O.D. values of hydrolyzed and non-hydrolyzed samples. Each standard (8 per plate) and sample (24 per plate) was analyzed in triplicate with random distribution across the plate to reduce edge effects.

[2] = hydrolysis of AMX in standard solutions and water samples, followed by ELISA; type: physicochemical; conditions: for reaction time after which no further shift in the calibration curve was observable (hydrolysis): 0.1 M NaOH
Description: While developing and optimizing an indirect competitive ELISA for the determination of AMX, we observed a significant shift in the calibration curves obtained for differently aged standard solutions (calibrators) of AMX in water. […] This shift reached its end point after two months of storage at 4 °C and could be ascribed to hydrolysis of the parent drug by hydrolyzing standard solutions of AMX in 0.1 M NaOH, which yielded a similar calibration curve in the ELISA (see Figure 2).
In order to examine the degree of hydrolysis of AMX in these samples, a parallel analysis in the ELISA without pretreatment with 0.1 M NaOH was carried out and concentration values determined with and without hydrolysis were compared. […] Because of the antibody’s lower affinity towards unhydrolyzed AMX (higher IC50), higher O.D. values are found which correlate with lower concentration values in the calibration curve. This was the case for all of the tested mineral waters after 20 h. Contrarily, for tap water samples (P1–P4) the analysis without hydrolysis led to higher concentration values than the assay featuring hydrolysis, implying that hydrolysis of AMX had already occurred in these samples. […] The reason for that may lie in general properties of tap water containing particles or metal ions, e.g., Cu^2+, which can serve as catalysts for AMX hydrolysis. Furthermore, the storage of the water samples might have an effect as tap water for sample preparation was collected and stored in a glass bottle whereas mineral water samples were taken directly from plastic bottles. Anyhow, the influence of the pH value of the water can be ruled out since the values were within a range from 6.6 to 8.0 and no general trend was observable. The same holds true for ionic constituents (see Supplementary Table S1).
as §1

[3] = non-hydrolyzed standard solutions (freshly prepared / before hydrolysis; pure compounds)
[4] = standards after alkaline hydrolysis (0.1 M NaOH, 24 h at 4 °C)

SMILES	IC50 [1, 3] [nM]	IC50 [1, 4] [nM]	other results
CC1(C)S[C@@H]2[C@H](NC(=O)[C@H](N)c3ccccc3)C(=O)N2[C@H]1C(=O)O [AMP, ampicillin]	1350 ± 130	36.2 ± 3.7	
CC1(C)S[C@@H]2[C@H](NC(=O)[C@H](N)c3ccc(O)cc3)C(=O)N2[C@H]1C(=O)O [AMX, amoxicillin]	1470 ± 120	38.1 ± 3.6	IC50 ([1]; standard solutions aged for 2 months at 4 °C in water): 52.2 ± 4.4 nM; reaction time after which no further shift in the calibration curve was observable (hydrolysis) ([2]; pH 12.5, 4 °C): 18 h; reaction time after which no further shift in the calibration curve was observable (hydrolysis) ([2]; pH 12.5, RT): 3 h; rate of hydrolysis in drinking water samples ([2]; spiked tap water vs bottled mineral water, after 20 h): much faster in tap water than in bottled mineral water; storage time until shift of calibration curve reached its end point (hydrolysis) ([2]; standard solutions in water, storage at 4 °C): two
CC1(C)S[C@@H]2[C@H](NC(=O)C(C(=O)O)c3ccccc3)C(=O)N2[C@H]1C(=O)O (some centres unmarked) [CRB, carbenicillin]	11 ± 0.4	3.8 ± 0.5	
CC1(C)SC(C(NC(=O)[C@H](N)c2ccc(O)cc2)C(=O)O)NC1C(=O)O (some centres unmarked) [HP1, amoxicilloic acid]	7.48 ± 0.58		fold higher affinity of the antibody than to the parent drug AMX ([1]; HP1 vs AMX): approximately 200 fold
CC1(C)SC(C2NC(=O)C(c3ccc(O)cc3)NC2=O)NC1C(=O)O (centres unmarked) [HP2, amoxicillin piperazine-2,5-dione]	28700		
CC1(C)S[C@@H]2[C@H](NC(=O)Cc3ccccc3)C(=O)N2[C@H]1C(=O)O [PenG, penicillin G]	700 ± 70	11.1 ± 1.7	reduction of LOD by hydrolysis [1]: 85%
CC1(C)S[C@@H]2[C@H](NC(=O)COc3ccccc3)C(=O)N2[C@H]1C(=O)O [PenV, penicillin V]	702 ± 66	11.6 ± 2.5	reduction of LOD by hydrolysis [1]: 85%
